Assay results published in US20260345792A1, “PROTACs AND HyT-PD MOLECULES FOR TARGETED PROTEIN DEGRADATION OF DCAF15 AND THEIR USE IN THE TREATMENT OF AMYLOIDOSIS” (KRÆFTENS BEKÆMPELSE, priority 2023, published 2026).
Where a SMILES comes first, the peptide text is derived from it. The star is where a group is joined. Cbz = O=C(OCc1ccccc1)*

Experiments:
[1] = tested on: HCT116 cells; assay: Clearance of protein aggregates: puromycin with Bafilomycin or MG132; format: cell-based; details: with 5 μg/ml puromycin 4 h; 200 nM Bafilomycin or 5 μM MG132
Experimental: Cells were fixed and stained for ubiquitin and p62. A representative experiment is shown (n=3).
HCT116 cells were treated with 5 μg/ml puromycin for 4 h alone or in combination with 200 nM Bafilomycin-1 or 5 μM MG132. Cells were fixed and stained for ubiquitin and p62. A representative experiment is shown (n=3) (see FIG. 3A). The double positive puncta per cell was quantified (see FIG. 3B).

[2] = tested on: HCT116 cells; assay: Proliferation (confluency) and clonogenic survival after puromycin, by DCAF15 genotype; format: cell-based; details: 5 μg/ml puromycin 4 h
Experimental: Confluency was recorded with imaging every 4 h. Representative experiments with technical triplicates are shown (n=3).
HCT116 cells were treated with 5 μg/ml puromycin for 4 h or left untreated before being released into normal growth media for 72 h. Confluency was recorded with imaging every 4 h, representative experiments with technical triplicates (n=3) are shown (see FIG. 4A.). HCT116 cells were treated with 5 μg/ml puromycin for 4 h before release into full media or left untreated for 7 days before fixation and crystal violet staining (see FIG. 4B.). Quantification of FIG. 4B as integrated density per well (see FIG. 4C).

[3] = tested on: HCT116 cells; BE2C cells; assay: Ubiquitin and p62 co-stained aggregates per cell after puromycin, by DCAF15 genotype; format: cell-based; details: 5 μg/ml puromycin, 4 h; DCAF15−/− vs WT and reconstituted cell lines
Experimental: Cells were stained for ubiquitinated proteins and p62. Separate and merged channels from a representative experiment are shown (n>3).
HCT116 cells with indicated genotypes were treated with 5 μg/ml puromycin for 4 h or left untreated (NT) before fixation. Cells were stained for ubiquitinated proteins and p62. Separate and merged channels from a representative experiment are shown (n>3) (see FIG. 1A). The number of ubiquitin and p62 co-stained aggregates per cell were quantified (see FIG. 1B.).
BE2C cells with indicated genotypes were treated and analysed as above (n=3). Separate and merged channels from a representative experiment are shown (n>3) (see FIG. 1C). The number of ubiquitin and p62 co-stained aggregates per cell were quantified (see FIG. 1D.).
Cell lines: WT (wild-type), DCAF15−/− (CRISPR-mediated stable DCAF15−/− knock-out cells), DCAF15−/−+WT 3xF (DCAF15−/− cells reconstituted with WT DCAF15 with 3×flag-tag).

[4] = tested on: DCAF15; details: Han et al., 2017 and WO 2022/169755; cited from earlier work
[5] = tested on: human cancer cell lines; details: cited from earlier work

SMILES	aggregate numbers in WT and reconstituted cell lines [1]	re-appearance of aggregates in DCAF15−/− cells [1]	ligand for DCAF15 [4]	also measured
CO/C1=C\C(C)=C\[C@@H](C)[C@@H](O)[C@@H](C)C/C(C)=C/C=C/[C@H](OC)[C@@H]([C@@H](C)[C@@H](O)[C@H](C)[C@@]2(O)C[C@@H](O)[C@H](C)[C@@H](C(C)C)O2)OC1=O [Bafilomycin A1]	enhance aggregate numbers in WT and reconstituted cell lines	we do not detect any re-appearance of aggregates in DCAF15−/− cells after treatments	–	–
CC(C)C[C@@H](C=O)NC(=O)[C@H](CC(C)C)NC(=O)[C@H](CC(C)C)NC(=O)OCc1ccccc1 [MG132] (Cbz-Leu-Leu-Leu-aldehyde)	enhance aggregate numbers in WT and reconstituted cell lines	we do not detect any re-appearance of aggregates in DCAF15−/− cells after treatments	–	–
COc1ccc(C[C@H](N)C(=O)N[C@H]2[C@@H](O)[C@H](n3cnc4c(N(C)C)ncnc43)O[C@@H]2CO)cc1 [Puromycin, puromycin]	–	–	–	clonogenic survival, sensitivity of DCAF15−/− cells ([2]; 7 days, crystal violet (FIGS. 4B and 4C)): insensitivity of DCAF15−/− cells to puromycin-induced toxicity; proliferation of DCAF15−/− cells ([2]; release for 72 h (FIG. 4A)): DCAF15−/− cells remain undeterred by puromycin treatment; proliferation rates in WT and reconstituted cell lines ([2]; release for 72 h (FIG. 4A)): significantly reduced proliferation rates; protein aggregation (co-localization of ubiquitin and p62) [3]: significant reduction of aggregates in DCAF15−/− cells relative to WT and reconstituted cell lines
NS(=O)(=O)c1ccc(S(=O)(=O)Nc2cccc3c(Cl)c[nH]c23)cc1 [indisulam]	–	–	act as ligands for DCAF15	inhibition of proliferation [5]: inhibits the proliferation of certain human cancer cell lines
O=C(NS(=O)(=O)c1ccc(Br)s1)c1ccc(Cl)cc1Cl [tasisulam]	–	–	act as ligands for DCAF15	–
